Test results: patent US20260083865A1, “PROSTATE SPECIFIC MEMBRANE ANTIGEN (PSMA) LIGANDS AND USE THEREOF” (priority 2022, published 2026)
Read-outs that look alike come from different tables or passages of the source. Numbered stars: 1 amine (or outer) side, 2 acyl side, 3 side chain; on linkers, the order of the positions; unused ones are H or OH. Bridge positions count the residues as written; N and C are the ends. Square brackets hold non-standard residues; d marks the D form. Peptide text beside a SMILES is read from it. * marks the point of attachment. X3 = O=C(O)CN1CCN(CC(=O)O)CCN(CC(=O)NCCCOCCOCCOCCCN*)CCN(CC(=O)O)CC1; DOTA = O=C(O)CN1CCN(CC(=O)O)CCN(CC(=O)*)CCN(CC(=O)O)CC1; Ala(quinolin-3-yl) = N[C@@H](Cc1cnc2ccccc2c1)C(=O)O; Phe(4-Cl) = N[C@@H](Cc1ccc(Cl)cc1)C(=O)O; Arg(Me) = CNC(=N)NCCC[C@H](N)C(=O)O; Isobutyryl(2-OH) = CC(C)(O)C(=O)*; X1 = O=C(CC1CCN([*:1])CC1)[*:2]; Cit = NC(=O)NCCC[C@H](N)C(=O)O; Lys(Me) = CNCCCC[C@H](N)C(=O)O; Suc = O=C(CCC(=O)[*:2])[*:1]; Tle = CC(C)(C)[C@H](N)C(=O)O; Pyridin(2-yl) = c1ccc(*)nc1; Orn = NCCC[C@H](N)C(=O)O; AEEA = NCCOCCOCC(=O)O; Aib = CC(C)(N)C(=O)O; CO = O=C([*:1])[*:2]; NHBu = CCCCN*

Legend:
[1] = biological target: T1, PSMA-expressing C4-2 cells (Homo sapiens, UniProt Q04609); assay: FACS binding assay (competition with 50 nM PSM-0183); settings: read-out: pIC50 [C4-2] CAT (converted)
T1 construct: PSMA-expressing C4-2 cells (ATCC, Cat. No. CRL-3314) were cultured in RPMI-1640; host or cells: C4-2 cells
T1 sequence (Q04609 whole entry): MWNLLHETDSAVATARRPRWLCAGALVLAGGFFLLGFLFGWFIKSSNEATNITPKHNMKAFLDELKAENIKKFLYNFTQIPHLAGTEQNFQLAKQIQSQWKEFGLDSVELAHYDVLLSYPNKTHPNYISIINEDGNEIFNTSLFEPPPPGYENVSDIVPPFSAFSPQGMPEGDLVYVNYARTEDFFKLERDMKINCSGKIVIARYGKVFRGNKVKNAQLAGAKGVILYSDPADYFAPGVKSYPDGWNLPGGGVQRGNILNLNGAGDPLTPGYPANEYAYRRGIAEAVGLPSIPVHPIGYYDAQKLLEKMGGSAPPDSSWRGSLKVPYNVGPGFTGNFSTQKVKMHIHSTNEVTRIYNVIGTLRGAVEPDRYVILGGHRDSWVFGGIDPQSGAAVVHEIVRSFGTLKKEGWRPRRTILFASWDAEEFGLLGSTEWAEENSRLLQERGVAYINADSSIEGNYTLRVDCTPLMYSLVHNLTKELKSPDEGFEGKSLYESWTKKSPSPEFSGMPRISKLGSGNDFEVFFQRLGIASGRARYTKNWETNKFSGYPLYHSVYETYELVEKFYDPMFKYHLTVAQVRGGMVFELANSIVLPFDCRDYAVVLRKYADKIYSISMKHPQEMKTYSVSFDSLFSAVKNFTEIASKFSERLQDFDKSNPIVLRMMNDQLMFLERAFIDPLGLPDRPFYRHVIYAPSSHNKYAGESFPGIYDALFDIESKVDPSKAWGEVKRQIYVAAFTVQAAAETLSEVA
Procedure, shortened: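 C4-2 cells were incubated 1 h at 4 °C with 50 nM AF488-labelled peptide PSM-0183 plus increasing test compound concentrations, then washed twice in ice-cold buffer. Median fluorescence in the AF488 channel was read by flow cytometry. IC50/pIC50 was derived by 4PL fitting of MFI versus concentration.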

[2] = biological target: T2, Fc-fusion protein of human PSMA (hPSMA-Fc) (Homo sapiens, UniProt Q04609); assay: Surface plasmon resonance assay (Biacore T200, single cycle kinetic); format: binding; settings: read-out: pKD CAT (converted)
T2 construct: purchased Acro Biosystems PSA-H5264
T2 sequence (Q04609 44-750 limits assumed): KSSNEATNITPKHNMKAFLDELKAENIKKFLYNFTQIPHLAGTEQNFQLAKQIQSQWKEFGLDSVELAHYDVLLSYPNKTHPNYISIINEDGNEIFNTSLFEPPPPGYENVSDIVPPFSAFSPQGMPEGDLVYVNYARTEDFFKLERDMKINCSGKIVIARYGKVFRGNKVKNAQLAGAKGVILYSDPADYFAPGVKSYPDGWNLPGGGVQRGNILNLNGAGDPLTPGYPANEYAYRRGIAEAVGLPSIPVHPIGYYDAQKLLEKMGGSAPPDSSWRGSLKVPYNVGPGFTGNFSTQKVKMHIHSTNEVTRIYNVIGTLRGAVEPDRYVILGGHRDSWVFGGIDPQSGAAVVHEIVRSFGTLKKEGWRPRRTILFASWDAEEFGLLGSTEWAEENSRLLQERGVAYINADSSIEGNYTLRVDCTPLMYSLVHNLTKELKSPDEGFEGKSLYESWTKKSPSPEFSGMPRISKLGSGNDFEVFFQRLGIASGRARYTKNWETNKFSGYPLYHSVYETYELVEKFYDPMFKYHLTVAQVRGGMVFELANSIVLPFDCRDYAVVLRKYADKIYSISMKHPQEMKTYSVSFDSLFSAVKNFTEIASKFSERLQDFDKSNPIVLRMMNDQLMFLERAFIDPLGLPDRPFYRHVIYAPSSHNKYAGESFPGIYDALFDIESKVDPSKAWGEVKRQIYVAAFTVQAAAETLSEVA
Procedure, shortened: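 hPSMA-Fc was captured (~1000 RU) on an Fc-binding-peptide CM5 chip, and compounds were run in single cycle kinetic mode at 25° C in HBST with 0.1% DMSO. Double-blank-corrected sensorgrams were fitted to a 1:1 Langmuir model to give KD, reported as pKD.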

[3] = pIC50 category of FACS binding, C4-2 cells
[4] = pKD category for PSMA SPR activity assay, hPSMA-Fc, 25° C.

| Compound | IC50 [1, 3] | Kd [2, 4] | also measured |
| --- | --- | --- | --- |
| CC(C)C[C@H](NC(=O)[C@@H]1CSSC[C@H](NC(=O)[C@H](Cc2ccccc2)NC(=O)[C@H](C)NC(=O)[C@@H](NC(=O)CCC(=O)NCCCOCCOCCOCCCNC(=O)CN2CCN(CC(=O)O)CCN(CC(=O)O)CCN(CC(=O)O)CC2)[C@@H](C)O)C(=O)N[C@@H](CCCCN)C(=O)N[C@@H](CCCNC(=N)N)C(=O)N[C@@H](C)C(=O)N[C@@H](CC(N)=O)C(=O)N1)C(N)=O [PSM-0480, DOTA-Ttds-Thr-Ala-Phe-[Cys-Lys-Arg-Ala-Asn-Cys]-Lou-NH2] ({X3-Suc}-TAFCKRANCL-NH2; disulfide 4-9) | 1260 to 3160 nM | 126 to 501 nM |  |
| CCCCNC(=O)N[C@H](C(=O)NC(C)(C)C(=O)N[C@@H](Cc1ccccc1)C(=O)N[C@H]1CSSC[C@@H](C(=O)N[C@H](C(=O)N[C@H](C(=O)N2CCC(CC(=O)N[C@H](CCCCNC(=O)CN3CCN(CC(=O)O)CCN(CC(=O)O)CCN(CC(=O)O)CC3)C(N)=O)CC2)[C@@H](C)O)C(C)(C)C)NC(=O)[C@H](CC(N)=O)NC(=O)C(C)(C)NC(=O)[C@H](CCCNc2ccccn2)NC(=O)[C@H](CCCCN)NC1=O)[C@@H](C)O [PSM-0258, nBuCAyl-Thr-Aib-Phe-[Cys-Lys-Opy-Aib-Asn-Cys]-Tle-Thr-Cmp-lys(DOTA)-NH] ({NHBu-CO}-T[Aib]FCK[Orn](Pyridin(2-yl))[Aib]NC[Tle]T[X1][dK](DOTA)-NH2; disulfide 4-9) |  |  | IC50 ([1]; FACS binding, C4-2 cells, competition with 50 nM PSM-0183, category): 200 to 1260 nM; Kd ([2]; SPR, hPSMA-Fc, single cycle kinetic, 25° C., category): 126 to 501 nM |
| C[C@@H](O)[C@H](NC(=O)[C@@H](NC(=O)[C@@H]1CSSC[C@H](NC(=O)[C@H](Cc2ccccc2)NC(=O)C(C)(C)NC(=O)CCC(=O)O)C(=O)N[C@@H](CCCCN)C(=O)N[C@@H](CCCNC(=N)N)C(=O)NC(C)(C)C(=O)N[C@@H](CC(N)=O)C(=O)N1)C(C)(C)C)C(N)=O [PSM-0577, HO-Succinyl-Aib-Phe-[Cys-Lys-Arg-Aib-Asn-Cys]-Tle-Thr-NH2] (Suc-[Aib]FCKR[Aib]NC[Tle]T-NH2; disulfide 3-8) |  |  | IC50 ([1]; FACS binding, C4-2 cells, category): < 200 nM; Kd ([2]; PSMA SPR assay, category): 12.6 to 126 nM |
| CNCCCC[C@@H]1NC(=O)[C@@H](NC(=O)[C@H](Cc2cnc3ccccc3c2)NC(=O)C(C)(C)NC(=O)[C@@H](NC(=O)CC2CCN(C(=O)CN3CCN(CC(=O)O)CCN(CC(=O)O)CCN(CC(=O)O)CC3)CC2)[C@@H](C)O)CSSC[C@@H](C(=O)N[C@H](C(=O)N[C@H](C(N)=O)[C@@H](C)O)C(C)(C)C)NC(=O)[C@H](CC(N)=O)NC(=O)C(C)(C)NC(=O)[C@H](CCCNC(=N)NC)NC1=O [PSM-0337, DOTA-Cmp-Thr-Aib-2Qi-[Cys-Lys(Me)-Arg(Me)-Aib-Asn-Cys]-Tle-Thr-NH2] ({DOTA}-[X1]T[Aib][Ala(quinolin-3-yl)]C[Lys(Me)][Arg(Me)][Aib]NC[Tle]T-NH2; disulfide 5-10) |  |  | IC50 ([1]; FACS binding, PSMA-expressing C4-2 cells, pIC50 category): 1260 to 3160 nM; Kd ([2]; PSMA SPR assay, hPSMA-Fc, 25° C., pKD category): > 501 nM |
| C[C@@H](O)[C@H](NC(=O)[C@@H](NC(=O)[C@@H]1CSSC[C@H](NC(=O)[C@H](Cc2ccccc2)NC(=O)C(C)(C)NC(=O)[C@@H](NC(=O)COCCOCCNC(=O)CN2CCN(CC(=O)O)CCN(CC(=O)O)CCN(CC(=O)O)CC2)[C@@H](C)O)C(=O)N[C@@H](CCCCN)C(=O)N[C@@H](CCCNC(=N)N)C(=O)NC(C)(C)C(=O)N[C@@H](CC(N)=O)C(=O)N1)C(C)(C)C)C(N)=O [PSM-0505, DOTA-020c-Thr-Aib-Phe-[Cys-Lys-Arg-Aib-Asn-Cys]-Tle-Thr-NH2] ({DOTA-AEEA}-T[Aib]FCKR[Aib]NC[Tle]T-NH2; disulfide 4-9) | < 200 nM | < 12.6 nM |  |
| CC(=O)N[C@H](C(=O)NC(C)(C)C(=O)N[C@@H](Cc1ccc(Cl)cc1)C(=O)N[C@H]1CSSC[C@@H](C(=O)N[C@H](C(=O)N[C@H](C(N)=O)[C@@H](C)O)C(C)(C)C)NC(=O)[C@H](CCC(=O)O)NC(=O)C(C)(C)NC(=O)[C@H](CCCNC(N)=O)NC(=O)[C@H](CCCCN)NC1=O)[C@@H](C)O [PSM-0496, Ac-Thr-Aib-Pcf-[Cys-Lys-Cit-Aib-Glu-Cys]-Tle-Thr-NH2] (Ac-T[Aib][Phe(4-Cl)]CK[Cit][Aib]EC[Tle]T-NH2; disulfide 4-9) | < 200 nM | 12.6 to 126 nM |  |
| C[C@@H](O)[C@H](NC(=O)[C@@H](NC(=O)[C@@H]1CSSC[C@H](NC(=O)[C@H](Cc2ccc(Cl)cc2)NC(=O)C(C)(C)O)C(=O)N[C@@H](CCCCN)C(=O)N[C@@H](CCCNC(=N)N)C(=O)NC(C)(C)C(=O)N[C@@H](CC(N)=O)C(=O)N1)C(C)(C)C)C(N)=O [PSM-0461, Hib-Pcf-[Cys-Lys-Arg-Aib-Asn-Cys]-Tle-Thr-NH2] ({Isobutyryl(2-OH)}-[Phe(4-Cl)]CKR[Aib]NC[Tle]T-NH2; disulfide 2-7) | < 200 nM | 12.6 to 126 nM |  |
